Source: patent publication US9687545B2, “Nonspecific immunostimulator composition, method of preparation the same, and its use” (BARODON-S.F.CORP., priority 2014, dated 2017)
Like-named read-outs stand apart in the source and are kept apart here.

Tested on: highly pathogenic AIV H5N1
Format: in vivo, BALB/C mice
Conditions: for body weight change after challenge: challenged groups treated with BARODON or TamiFlu, 2 weeks

For `CCOC(=O)C1=C[C@@H](OC(CC)CC)[C@H](NC(C)=O)[C@@H](N)C1` [TamiFlu], the survival rate (TamiFlu 10 mg/kg/day orally for 5 days after challenge, by D12) was 75%, the “body weight change after challenge” value was “none of the groups treated with TamiFlu and BARODON exhibited weight gain after challenge” and the “body weight change after challenge” value (listed as TamiFlue) was “no difference in weight change between groups”.
